# System: auto-antibodies bound to the affinity chromatographic column
# Test: Eluted auto-antibodies tested for preferential binding to peptide 1 or peptide 2 bound to a solid phase
# Set-up: species or system human
# Procedure: After elution from the affinity matrix, the auto-antibodies bound to the affinity chromatographic column were tested for preferential binding to peptide 1 or peptide 2 by means of peptide 1 and peptide 2 bound to a solid phase. Auto-antibody type 1 prefers the binding of peptide 1, and auto-antibody type 2 prefers the binding of peptide 2.
Sequence,"preferential binding of auto-antibodies to peptide 1 or peptide 2 (auto-antibodies of person 2, peptides bound to a solid phase)","preferential binding of auto-antibodies to peptide 1 or peptide 2 (auto-antibodies of person 1, peptides bound to a solid phase)"
HWWRAESDEARRSYNDPKC [Peptide 2],preferably bind,–
TGSFFCELWTSGKK [Peptide 1],–,preferably bind
